Patent US20250214977A1, “STAT6 INHIBITORS AND USES THEREOF” (Kymera Therapeutics, Inc., priority 2024, published 2025)
Where two headings read alike, the source gives them in different places.

Test system: Phosphorylation of STAT6 in human A549 cells
Assay: Phosphorylated STAT6 (pSTAT6) flow cytometry assay in human A549 cells
Assay type: cell-based
Text: Example 3. Phosphorylated STAT6 (pSTAT6) Flow Cytometry Assay in Human A549 Cells
Phosphorylation of STAT6 in human A549 cells was quantitatively measured using flow cytometry technology.

[1] = read-out: STAT6 IL4 pSTAT6 assay in A549 cells: Average IC50

Compound	IC50 [1] [nM]	further results
2-(3-(1-(cyclopropylmethyl)-7-(2-ethyl-6-methylpyridin-3-yl)-5-(4-(5-fluoro-3-methoxypyridin-2-yl)piperazine-1-carbonyl)-1H-indol-2-yl)-5,6-dihydropyridin-1(2H)-yl)-2-oxoacetic acid [Example I-1228]	< 100	
5-(1-(2-formyl-1,2,3,4-tetrahydroisoquinoline-3-carbonyl)-1,2,5,6-tetrahydropyridin-3-yl)-7-(2-methoxyphenyl)-N,N-dimethylbenzofuran-2-carboxamide [Example I-803]	> 100000	
CCC1CN(C(=O)c2cc3c(-c4ccccc4OC)cc(C4=CCCN(C(=O)CCn5ccnn5)C4)c(F)c3[nH]2)CC=C1c1ccccn1 (racemic) [Example I-1042]	10000 to 100000	
COc1ccc(C)cc1-c1cc(C2=CCCN(C(=O)C3Cc4ccccc4CN3C=O)C2)cc2cc(C(=O)N(C)C)oc12 (racemic) [Example I-1196]	< 100	
CN(C)C(=O)c1cc2c(F)c(C3=CCCN(C(=O)[C@@H]4Cc5ccccc5CN4C=O)C3)ccc2o1 (single isomer, unassigned) [Example I-375]	100 to 1000	
CN(C)C(=O)c1cc2c(F)c(C3=CCCN(C(=O)[C@H]4Cc5ccccc5CN4C=O)C3)ccc2o1 (single isomer, unassigned) [Example I-376]	> 100000	
COc1ccccc1-c1cc(C2=CCCN(C(=O)[C@H]3Cc4ccccc4CN3C=O)C2)cc2cc(C(=O)N(C)C)oc12 (single isomer, unassigned) [Example I-804]	100 to 1000	
COc1ccccc1-c1cc(C2=CCCN(C(=O)[C@@H]3Cc4ccccc4CN3C=O)C2)cc2cc(C(=O)N(C)C)oc12 (single isomer, unassigned) [Example I-805]	10000 to 100000	
CCc1ccncc1-c1cc(C2=CCC[C@H](C(=O)O)C2)c(F)c2[nH]c(C(=O)N3CCN(c4ncc(F)cc4OC)CC3)cc12 (single isomer, unassigned) [Example I-809]	> 100000	
CCc1ccncc1-c1cc(C2=CCC[C@@H](C(=O)O)C2)c(F)c2[nH]c(C(=O)N3CCN(c4ncc(F)cc4OC)CC3)cc12 (single isomer, unassigned) [Example I-810]	> 100000	
COc1cc(F)cnc1N1CCN(C(=O)c2cc3c([C@@H]4CCCN4C)cc(C4=CCCN(C(=O)CCn5ccnn5)C4)c(F)c3[nH]2)CC1 (single isomer, unassigned) [Example I-813]	> 100000	IC50 (listed as I-390, read-out: STAT6 IL4 pSTAT6 assay in A549 cells: Average IC50): < 100 nM
COc1cc(F)cnc1N1CCN(C(=O)c2cc3c([C@H]4CCCN4C)cc(C4=CCCN(C(=O)CCn5ccnn5)C4)c(F)c3[nH]2)CC1 (single isomer, unassigned) [Example I-814]	> 100000	IC50 (listed as I-391, read-out: STAT6 IL4 pSTAT6 assay in A549 cells: Average IC50): < 100 nM
C[C@H](Cn1ccnn1)C(=O)N1CCC=C(c2ccc3oc(C(=O)N(C)C)cc3c2)C1 (single isomer, unassigned) [Example I-818]	100 to 1000	
CCC1CCCCC1c1cc(C2=CCCN(C(=O)CCn3ccnn3)C2)c(F)c2[nH]c(C(=O)N3CCN(c4ncc(F)cc4OC)CC3)cc12 (single isomer, unassigned) [Example I-1174]	1000 to 10000	
CCC1CCCCC1c1cc(C2=CCCN(C(=O)CCn3ccnn3)C2)c(F)c2[nH]c(C(=O)N3CCN(c4ncc(F)cc4OC)CC3)cc12 (single isomer, unassigned) [Example I-1175]	100 to 1000	
CN(C)C(=O)c1cc2ccc([C@H]3CCCN(C(=O)CCn4ccnn4)C3)c(F)c2[nH]1 (single isomer, unassigned) [Example I-1187]	< 100	
CNc1ccc(-c2cc([C@@H]3CCCN(C(=O)CCn4ccnn4)C3)cc3[nH]c(C(=O)N(C)C)cc23)c(OC)c1 (single isomer, unassigned) [Example I-1191]	1000 to 10000	
CNc1ccc(-c2cc([C@H]3CCCN(C(=O)CCn4ccnn4)C3)cc3[nH]c(C(=O)N(C)C)cc23)c(OC)c1 (single isomer, unassigned) [Example I-1194]	< 100	
COc1ccccc1-c1cc(C2=CCCN(C(=O)CCn3ccnn3)C2)c(F)c2[nH]c(C(=O)N3CCN(c4ncccc4Cl)CC3)cc12 [Example I-324]	< 100	
COc1ccccc1-c1cc(C2=CCCN(C(=O)CCn3ccnn3)C2)c(F)c2[nH]c(C(=O)N3CCN(C4CC4)CC3)cc12 [Example I-325]	< 100	
COc1ccccc1-c1cc(C2=CCCN(C(=O)CCn3ccnn3)C2)c(F)c2[nH]c(C(=O)N3CCN(c4ncccc4OC)CC3)cc12 [Example I-326]	10000 to 100000	
CCc1cccnc1N1CCN(C(=O)c2cc3c(-c4ccccc4OC)cc(C4=CCCN(C(=O)CCn5ccnn5)C4)c(F)c3[nH]2)CC1 [Example I-327]	< 100	
COc1ccccc1-c1cc(C2=CCCN(C(=O)CCn3ccnn3)C2)c(F)c2[nH]c(C(=O)N3CCN(c4ncccc4C#N)CC3)cc12 [Example I-328]	< 100	
COc1ccccc1-c1cc(C2=CCCN(C(=O)CCn3ccnn3)C2)c(F)c2[nH]c(C(=O)N3CCN(c4ncccc4C(F)(F)F)CC3)cc12 [Example I-329]	< 100	

Compound	IC50 [1] [nM]	further results
COCCOc1cccnc1N1CCN(C(=O)c2cc3c(-c4ccccc4OC)cc(C4=CCCN(C(=O)CCn5ccnn5)C4)c(F)c3[nH]2)CC1 [Example I-330]	< 100	
COc1ccccc1-c1cc(C2=CCCN(C(=O)CCn3ccnn3)C2)c(F)c2[nH]c(C(=O)N3CCN(c4ncccc4OC(F)(F)F)CC3)cc12 [Example I-331, 1-(5-(7-fluoro-4-(2-methoxyphenyl)-2-(4-(3-(trifluoromethoxy)pyridin-2-yl)piperazine-1-carbonyl)-1H-indol-6-yl)-3,6-dihydropyridin-1(2H)-yl)-3-(1H-1,2,3-triazol-1-yl)propan-1-one]	< 100	
COc1ccccc1-c1cc(C2=CCCN(C(=O)CCn3ccnn3)C2)c(F)c2[nH]c(C(=O)N3CCN(c4ncccc4OC(C)C)CC3)cc12 [Example I-332]	< 100	
COc1ccccc1-c1cc(C2=CCCN(C(=O)CCn3ccnn3)C2)c(F)c2[nH]c(C(=O)N3CCN(c4ncccc4C(C)C)CC3)cc12 [Example I-333]	< 100	
COc1ccccc1-c1cc(C2=CCCN(C(=O)CCn3ccnn3)C2)c(F)c2[nH]c(C(=O)N3CCN(c4ncccc4Oc4ccccc4)CC3)cc12 [Example I-334]	< 100	
CCOc1cccnc1N1CCN(C(=O)c2cc3c(-c4ccccc4OC)cc(C4=CCCN(C(=O)CCn5ccnn5)C4)c(F)c3[nH]2)CC1 [Example I-335]	< 100	
COc1ccccc1-c1cc(C2=CCCN(C(=O)CCn3ccnn3)C2)c(F)c2[nH]c(C(=O)N3CCN(c4ncccc4OC4CC4)CC3)cc12 [Example I-336]	< 100	
COc1ccccc1-c1cc(C2=CCCN(C(=O)CCn3ccnn3)C2)c(F)c2sc(C(=O)N(C)C)cc12 [Example I-337, 6-(1-(3-(1H-1,2,3-triazol-1-yl)propanoyl)-1,2,5,6-tetrahydropyridin-3-yl)-7-fluoro-4-(2-methoxyphenyl)-N,N-dimethylbenzo[b]thiophene-2-carboxamide]	< 100	
COc1cccnc1N1CCN(C(=O)c2cc3ccc(C4=CCCN(C(=O)CCn5ccnn5)C4)c(F)c3[nH]2)CC1 [Example I-338]	< 100	
COc1ccccc1-c1cc(C2=CCCN(C(=O)CCn3ccnn3)C2)c(F)c2[nH]c(C(=O)N3CCN(c4nc5ccccc5nc4C)CC3)cc12 [Example I-339]	< 100	
COc1ccccc1-c1cc(C2=CCCN(C(=O)CCn3ccnn3)C2)c(F)c2[nH]c(C(=O)N3CCN(c4cc(F)c5nc(C)n(C(C)C)c5c4)CC3)cc12 [Example I-340]	< 100	
COc1ccccc1-c1cc(C2=CCCN(C(=O)CCn3ccnn3)C2)c(F)c2[nH]c(C(=O)N3CCN(c4cc5ccccc5cc4OC)CC3)cc12 [Example I-342]	< 100	
O=C(CCn1ccnn1)N1CCC=C(c2cc(-c3ccccc3F)c3cc(C(=O)N4CCN(c5ncccc5OC5CC5)CC4)[nH]c3c2F)C1 [Example I-343]	< 100	
COc1ccccc1-c1cc(C2=CCCN(C(=O)CCn3cccn3)C2)c(F)c2[nH]c(C(=O)N3CCN(c4ncccc4OC4CC4)CC3)cc12 [Example I-345]	< 100	
COc1ccccc1-c1cc(C2=CCCN(C(=O)CCn3ccnn3)C2)c(F)c2sc(C(=O)N3CCN(c4ncccc4OC)CC3)cc12 [Example I-346]	< 100	
COc1ccccc1-c1cc(C2=CCCN(C(=O)CCn3ccnn3)C2)c(F)c2[nH]c(C(=O)N3CCN(c4cccnc4OC)CC3)cc12 [Example I-347]	< 100	
COc1ccccc1-c1cc(C2CCCN(C(=O)CCn3ccnn3)C2)c(F)c2[nH]c(C(=O)N3CCN(c4ncccc4OC)CC3)cc12 (stereo not shown) [Example I-348]	< 100	
COc1ccccc1-c1cc(C2=CCCN(C(=O)CCn3ccnn3)C2)c(F)c2[nH]c(C(=O)N3CCN(c4ccccc4OC)CC3)cc12 [Example I-349]	< 100	
COc1ccccc1-c1cc(C2=CCCN(C(=O)CCn3ccnn3)C2)c(F)c2[nH]c(C(=O)N3CCN(c4c(OC)cccc4OC)CC3)cc12 [Example I-350]	< 100	
COc1cnc(N2CCN(C(=O)c3cc4c(-c5ccccc5OC)cc(C5=CCCN(C(=O)CCn6ccnn6)C5)c(F)c4[nH]3)CC2)c(OC)c1 [Example I-352]	< 100	
CNc1cnc(N2CCN(C(=O)c3cc4c(-c5ccccc5OC)cc(C5=CCCN(C(=O)CCn6ccnn6)C5)c(F)c4[nH]3)CC2)c(OC)c1 [Example I-353]	< 100	
COc1ccccc1-c1cc(C2=CCCN(C(=O)CCn3ccnn3)C2)c(F)c2[nH]c(C(=O)N3CCN(c4ncc(C5CC5)cc4OC)CC3)cc12 [Example I-354]	< 100	
COc1ccccc1-c1cc(C2=CCCN(C(=O)CCn3ccnn3)C2)c(F)c2[nH]c(C(=O)N3CCN(c4nccc5ccncc45)CC3)cc12 [Example I-355]	< 100	
